Data as given in patent publication US8343475B2, “Small cationic antimicrobial peptides” (priority 2006, dated 2013).
No end group written: not given here.

Legend:
Assay in all cases: Chemokine induction in PBMC (capture ELISA)
Format in all cases: cell-based
[1] = tested on: CXCL1 (Gro-α) release by human PBMC; conditions: background (196) subtracted
Method: FIG. 17. Induction of CXCL1 (Gro-α) release by 7.5×10^5 human PBMC in response to treatment with 20 or 100 μg/ml of different peptides for 24 hours.
(§1) Venous blood (20 ml) from healthy volunteers was collected in Vacutainer® collection tubes containing sodium heparin as an anticoagulant (Becton Dickinson, Mississauga, ON) in accordance with UBC ethical approval and guidelines. Blood was diluted 1:1 with complete RPMI 1640 medium and separated by centrifugation over a Ficoll-Paque® Plus (Amersham Biosciences, Piscataway, N.J., USA) density gradient. White blood cells were isolated from the buffy coat, washed twice in RPMI 1640 complete medium, and the number of peripheral blood mononuclear cells (PBMC) was determined by trypan blue exclusion. PBMC (5×10^5) were seeded into 12-well tissue culture dishes (Falcon; Becton Dickinson) at 0.75 to 1×10^6 cells/ml at 37° C. in 5% CO2. The above conditions were chosen to mimic conditions for circulating blood monocytes entering tissues at the site of infection via extravasation.
(§2) Following incubation of the cells under various treatment regimens, the tissue culture supernatants were centrifuged at 1000×g for 5 min, then at 10,000×g for 2 min to obtain cell-free samples. Supernatants were aliquoted and then stored at −20° C. prior to assay for various chemokines by capture ELISA (eBioscience and BioSource International Inc., CA, USA respectively)

[2] = tested on: MCP-3 release by human PBMC; conditions: background (6) subtracted
Method: FIG. 16. Induction of MCP3 release by 7.5×10^5 human PBMC in response to treatment with 20 or 100 μg/ml of different peptides for 24 hours.
as §1, §2

[3] = tested on: MCP-1 release by human PBMC; conditions: background (204) subtracted
Method: FIG. 15. Induction of MCP-1 release by 7.5×10^5 human PBMC in response to treatment with 20 or 100 μg/ml of different peptides for 24 hours.
as §1, §2

Substance	Chemokine induction Gro-α ([1]; 20 μg/ml peptide) [pg/mL]	Chemokine induction Gro-α ([1]; 100 μg/ml peptide) [pg/mL]	Chemokine induction MCP-3 ([2]; 20 μg/ml peptide) [pg/mL]	Chemokine induction MCP-3 ([2]; 100 μg/ml peptide) [pg/mL]	Chemokine induction MCP-1 ([3]; 20 μg/ml peptide) [pg/mL]	Chemokine induction MCP-1 ([3]; 100 μg/ml peptide) [pg/mL]
1025 (RRIVKKFQIVRR) [compound 1025]	-3	32	1	3	109	284
1027 (KKQVSRVKVWRK) [compound 1027]	8	204	0	14	54	1466
1029 (KQFRIRVRV) [compound 1029]	49	60	3	3	296	205
1034 (KQFRNRLRIVKK) [compound 1034]	60	61	0	4	434	796
1036 (VQFRIRVIVIRK) [compound 1036]	51	137	1	39	601	968
1038 (IVVRRVIRK) [compound 1038]	12	518	0	41	25	1552
1039 (IWVIRRVWR) [compound 1039]	469	1717	13	67	603	2420
1040 (FQVVKIKVR) [compound 1040]	2	264	0	9	74	1143
1042 (IVWIWRR) [compound 1042]	44	9	3	3	-7	12
1044 (RRWIVWI) [compound 1044]	1963	1545	115	261	1561	5024
1045 (RWWRIVI) [compound 1045]	13	435	0	31	-2	989
1046 (WIRVIRW) [compound 1046]	38	147	1	4	46	449
1047 (IIRRWWV) [compound 1047]	-1	-3	0	0	8	130
1048 (IRWVIRW) [compound 1048]	7	-11	0	0	96	38
FRIRVRVIR (FRIRVRVIR-NH2) [compound 1030]	10	674	1	35	139	2075
